Tested on: C. elegans
Assay: Mitophagy and mitochondrial function in C. elegans
Assay type: in vivo
Excerpt: FIGS. 13A-13B illustrate that coumarin 106 (“C1”, “AIC106”) promotes increased indices of mitophagy. FIG. 13A) Representative images and GFP quantification of mitochondrial content at day-5 adult worms (pges-1mtGFP; bottom) of mito::GFP reporter strains (GFP tagged to mitochondrial localizing signals) treated with C1 or DMSO control. FIG. 13B) Visualizing mitochondrial fission using mito::GFP (pmyo-3mtGFP) reporter strain. Representative GFP image shown in upper panel. Representative images (lower panel) showing mitochondrial fission after 48 hrs of C1 or control treatment (63× oil). Images converted to black & white format using NIH ImageJ software for quantification of fragmented mitochondria, denoted as white puncta here.
FIGS. 14A-14B illustrate that coumarin 106 (“C1”, “AIC106”) results in increases in mitochondrial function. FIG. 14A) Basal and maximal respiration measured in live worms in the Seahorse following addition of C1 (50, 200 μM). Values are reported as oxygen consumption rate (OCR, pmol/min/mg protein)+/− FCCP addition; *p<0.05; **p<0.01. FIG. 14B) Sensitivity to treatment for with increasing concentrations of the mitochondrial uncoupler FCCP in the absence and presence of C1 (20, 50 μM; 1 hr). Values are reported as % of live worms per plate, *p<0.01 versus FCCP alone.
FIG. 20, panels A-H: AIC106 treatment improves mitochondrial health. Panel A) Changes in mitochondrial membrane potential were determined by quantifying fluorescence intensity of individual TMRM stained wild type N2 worms post-24 hours treatment with AIC106 and DMSO-control. [N=3 independent experiments (mean±SD). ****p<0.0001, by unpaired t-test]. Panel B) TMRM stained wild type N2 worms were monitored by fluorescence microscopy. Panel C) Mitophagy flux upon AIC106 treatment was determined in DLM14 young adult worms (TOMM-7 tagged to a peptide linked dual-Fluorescent GFP) by quantifying relative fold changes in ratio of monomeric-fluorescent protein (mFP) to dual-fluorescent protein (dFP) compared to DMSO-control. Panel D) Ability of AIC106 to rescue mitochondrial toxin (FCCP) sensitivity was determined as percent survival of 24 hours treated AIC106 and DMSO-control wild type N2 worms. [N=3 independent experiments (mean±SD). ****p<0.0001, by two-way ANOVA with Sidak's multiple comparisons test]. Panel E) Ability of AIC106 to rescue enhanced mitochondrial toxin (FCCP, 20 μM) sensitivity in mitophagy deficient parkin/pdr-1 mutant was determined as percent survival of 24 hours treated AIC106 and DMSO-control pdr-1(tm598) and pdr-1(tm598); hlh-30(tm1978) mutant. [N=3 independent experiments (mean±SD). *p<0.05, by two-way ANOVA with Sidak's multiple comparisons test]. Panel F) Effect of AIC106 on mitochondrial biogenesis was determined by quantifying GFP fluorescence intensity in an individual SJ4143 worm (GFP targeted in mitochondria of intestinal cells) post-72 hours of treatment with AIC106 and DMSO-control. [N=3 independent experiments (mean±SD). ****p<0.0001, by unpaired t-test]. Panel G) SJ4143 worms were monitored by fluorescence microscopy. Panel H) Effects of AIC106 on basal (B) and maximum (M) mitochondrial respiration rate were determined by quantifying oxygen consumption rate (OCR) in wild type N2 and hlh-30(tm1978) mutant strain post-24 hours of treatment with AIC106 and DMSO-control. [N=3 independent experiments (mean±SD). *p<0.05, ***p<0.001 and ****p<0.0001, by one-way ANOVA with Tukey's multiple comparisons test].
FIG. 27, panels A-C: AIC106 induces mitophagy and increases lifespan. Panel A) Relative fold change in mRNA of key mitophagy genes including dct-1, pink-1 and pdr-1 was quantified by qRT-PCR after DMSO-control and AIC106 24 hours treatment in young adult N2 and hlh-30(tm1978) mutants. [N=3 independent experiments (mean±SD). **p<0.01 and ****p<0.0001, by two-way ANOVA with Sidak's multiple comparisons test]. […]

## O=c1oc2c3c4c(cc2c2c1CCC2)CCCN4CCC3 [C1, 2,3,6,7,10,11-Hexahydro-1H,5H-cyclopenta(3,4)(1)benzopyrano(6,7,8-ij)quinolizin-12(9H)-one]
DLM14 worms (FIG. 20, panel C)
  mitophagy flux (mFP): increased mFP expression
FIG. 13
  mitophagy: elevated mitophagy
FIG. 14
  mitochondrial health: improvement in mitochondrial health
N2, hlh-30 dependent (FIG. 27, panel A)
  mRNA of mitophagy specific genes: elevated mRNA abundance of key mitophagy specific genes including dct-1 and pink-1
N2 worms, 24 hours
  mitochondrial membrane potential (TMRM fluorescence): significant decrease in the MMP
SJ4143 worms, 72 hours
  mitochondrial content (GFP): increased mitochondrial content
hlh-30 mutant worms
  maximum respiration capacity (OCR): failed to show any increase in the maximum respiration capacity
Wild type N2, 24 hours
  maximum respiration capacity (OCR): increase maximum respiration capacity
